Measured values published in ChEMBL document CHEMBL5352419, “Design, synthesis, and biological evaluation of tetrahydroquinoline amphiphiles as membrane-targeting antimicrobials against pathogenic bacteria and fungi” (Eur J Med Chem, 2022).
In brackets after ≈: the same amount, converted by molar mass.

Assays:
Candida albicans [1] = test: Antimicrobial activity against Candida albicans CMCC98001 assessed as fungal growth inhibition incubated for 48 hrs by Sabouraud Dextrose broth based dilution assay; format: functional
Staphylococcus aureus [2] = test: Antimicrobial activity against methicillin-resistant Staphylococcus aureus N315 assessed as bacterial growth inhibition incubated for 24 hrs by Muller Hinton broth based dilution assay; format: functional
[3] = Hemolytic activity in rabbit RBC incubated for 1 hr by absorbance based microplate reader assay; format: toxicity, cell-based, Oryctolagus cuniculus, Erythrocyte; conditions: rabbit red blood cells (erythrocytes)
Escherichia coli [4] = test: Antimicrobial activity against Escherichia coli ATCC25922 assessed as bacterial growth inhibition incubated for 24 hrs by Muller Hinton broth based dilution assay; format: functional
Staphylococcus aureus [5] = test: Antimicrobial activity against methicillin-resistant Staphylococcus aureus NCTC10442 assessed as bacterial growth inhibition incubated for 24 hrs by Muller Hinton broth based dilution assay; format: functional
Staphylococcus aureus [6] = test: Antimicrobial activity against Staphylococcus aureus ATCC29213 assessed as bacterial growth inhibition incubated for 24 hrs by Muller Hinton broth based dilution assay; format: functional
Candida albicans [7] = test: Antimicrobial activity against Candida albicans ATCC10231 assessed as fungal growth inhibition incubated for 48 hrs by Sabouraud Dextrose broth based dilution assay; format: functional
Acinetobacter baumannii [8] = test: Antimicrobial activity against Acinetobacter baumannii ATCC17978 assessed as bacterial growth inhibition incubated for 24 hrs by Muller Hinton broth based dilution assay; format: functional
Pseudomonas aeruginosa = test: Antimicrobial activity against Pseudomonas aeruginosa ATCC9027 assessed as bacterial growth inhibition incubated for 24 hrs by Muller Hinton broth based dilution assay; format: functional
Acinetobacter baumannii [9] = test: Antimicrobial activity against Acinetobacter baumannii R2889 assessed as bacterial growth inhibition incubated for 24 hrs by Muller Hinton broth based dilution assay; format: functional
Klebsiella pneumoniae [10] = test: Antimicrobial activity against Klebsiella pneumoniae ATCC14581 assessed as bacterial growth inhibition incubated for 24 hrs by Muller Hinton broth based dilution assay; format: functional
Klebsiella pneumoniae [11] = test: Antimicrobial activity against Klebsiella pneumoniae ATCC10031 assessed as bacterial growth inhibition incubated for 24 hrs by Muller Hinton broth based dilution assay; format: functional
Escherichia coli [12] = test: Antibiofilm activity against Escherichia coli ATCC25922 assessed as inhibition of biofilm formation at 0.39 ug/mL incubated for 24 hrs by crystal violet staining based analysis relative to control; format: functional; conditions: dose 0.39 µg/ml
Escherichia coli [13] = test: Disruption of preformed biofilm in Escherichia coli ATCC25922 assessed as residual preformed biofilm at 3.125 ug/mL incubated for 24 hrs by crystal violet staining based analysis relative to control; format: functional; conditions: dose 3.125 µg/ml
Escherichia coli [14] = test: Antibiofilm activity against Escherichia coli ATCC25922 assessed as inhibition of biofilm formation at 6.25 ug/mL incubated for 24 hrs by crystal violet staining based analysis relative to control; format: functional; conditions: dose 6.25 µg/ml
Escherichia coli [15] = test: Antibiofilm activity against Escherichia coli ATCC25922 assessed as inhibition of biofilm formation at 0.78 ug/mL incubated for 24 hrs by crystal violet staining based analysis relative to control; format: functional; conditions: dose 0.78 µg/ml
Escherichia coli [16] = test: Antibiofilm activity against Escherichia coli ATCC25922 assessed as inhibition of biofilm formation at 3.125 ug/mL incubated for 24 hrs by crystal violet staining based analysis relative to control; format: functional; conditions: dose 3.125 µg/ml
Escherichia coli [17] = test: Disruption of preformed biofilm in Escherichia coli ATCC25922 assessed as residual preformed biofilm at 12.5 ug/mL incubated for 24 hrs by crystal violet staining based analysis relative to control; format: functional; conditions: dose 12.5 µg/ml
Escherichia coli [18] = test: Disruption of preformed biofilm in Escherichia coli ATCC25922 assessed as residual preformed biofilm at 25 ug/mL incubated for 24 hrs by crystal violet staining based analysis relative to control; format: functional; conditions: dose 25.0 µg/ml
Escherichia coli [19] = test: Disruption of preformed biofilm in Escherichia coli ATCC25922 assessed as residual preformed biofilm at 6.25 ug/mL incubated for 24 hrs by crystal violet staining based analysis relative to control; format: functional; conditions: dose 6.25 µg/ml
Escherichia coli [20] = test: Disruption of preformed biofilm in Escherichia coli ATCC25922 assessed as residual preformed biofilm at 0.78 ug/mL incubated for 24 hrs by crystal violet staining based analysis relative to control; format: functional; conditions: dose 0.78 µg/ml

Molecule | MIC (Candida albicans [1]) | MIC (Staphylococcus aureus [2]) | HC50 at 1 h [3] | MIC (Escherichia coli [4]) | MIC (Staphylococcus aureus [5]) | MIC (Staphylococcus aureus [6]) | MIC (Candida albicans [7]) | other results
CC(C)=CCC/C(C)=C/CN1CCCc2cc(OCCCCBr)ccc21 | 50 µg/mL (≈ 119 µM) | 25 µg/mL (≈ 59.5 µM) | > 200 µg/mL | > 50 µg/mL | 25 µg/mL (≈ 59.5 µM) | 25 µg/mL (≈ 59.5 µM) | > 50 µg/mL | 
CCCCCCCCCN1CCCc2cc(OCC(=O)N[C@@H](CCCNC(=N)N)C(=O)OC)ccc21 | 3.12 µg/mL (≈ 6.2 µM) | 1.56 µg/mL (≈ 3.1 µM) | > 200 µg/mL | 6.25 µg/mL (≈ 12.4 µM) | 1.56 µg/mL (≈ 3.1 µM) | 3.12 µg/mL (≈ 6.2 µM) | 3.12 µg/mL (≈ 6.2 µM) | MIC (Acinetobacter baumannii [8]): 6.25 µg/mL (≈ 12.4 µM); MIC (Pseudomonas aeruginosa): 12.5 µg/mL (≈ 24.8 µM); MIC (Acinetobacter baumannii [9]): 6.25 µg/mL (≈ 12.4 µM); MIC (Klebsiella pneumoniae [10]): 3.12 µg/mL (≈ 6.2 µM); MIC (Klebsiella pneumoniae [11]): 3.12 µg/mL (≈ 6.2 µM)
CC(C)=CCN1CCCc2cc(OCCCCN3CCCC3)ccc21 | > 50 µg/mL | > 50 µg/mL | > 200 µg/mL | > 50 µg/mL | > 50 µg/mL | > 50 µg/mL | > 50 µg/mL | 
CCCN(CCC)CCCCOc1ccc2c(c1)CCCN2CC=C(C)C | > 50 µg/mL | 25 µg/mL (≈ 67.1 µM) | > 200 µg/mL | > 50 µg/mL | 50 µg/mL (≈ 134 µM) | 25 µg/mL (≈ 67.1 µM) | > 50 µg/mL | 
POLYMYXIN B |  |  |  |  |  |  |  | inhibition (Escherichia coli [12]): 22.9%; Activity (Escherichia coli [13]): 19.2%; inhibition (Escherichia coli [14]): 100%; inhibition (Escherichia coli [15]): 43.3%; inhibition (Escherichia coli [16]): 99.8%; Activity (Escherichia coli [17]): 8.48%; Activity (Escherichia coli [18]): 6.65%; Activity (Escherichia coli [19]): 7.57%; Activity (Escherichia coli [20]): 87.5%
CC(C)=CCC/C(C)=C/CN1CCCc2cc(OCCCCNC(=N)N)ccc21 | 1.56 µg/mL (≈ 3.91 µM) | 0.78 µg/mL (≈ 1.96 µM) | 154 µg/mL | 3.12 µg/mL (≈ 7.84 µM) | 0.78 µg/mL (≈ 1.96 µM) | 0.78 µg/mL (≈ 1.96 µM) | 3.12 µg/mL (≈ 7.84 µM) | MIC (Acinetobacter baumannii [8]): 3.12 µg/mL (≈ 7.84 µM); MIC (Pseudomonas aeruginosa): 6.25 µg/mL (≈ 15.7 µM); MIC (Acinetobacter baumannii [9]): 3.12 µg/mL (≈ 7.84 µM); MIC (Klebsiella pneumoniae [10]): 1.56 µg/mL (≈ 3.91 µM); MIC (Klebsiella pneumoniae [11]): 1.56 µg/mL (≈ 3.91 µM)
CCCCCCCCCN1CCCc2cc(OCC(=O)N[C@@H](CCCNC(=N)N)C(N)=O)ccc21 | 3.12 µg/mL (≈ 6.39 µM) | 1.56 µg/mL (≈ 3.19 µM) | > 200 µg/mL | 3.12 µg/mL (≈ 6.39 µM) | 1.56 µg/mL (≈ 3.19 µM) | 1.56 µg/mL (≈ 3.19 µM) | 3.12 µg/mL (≈ 6.39 µM) | MIC (Acinetobacter baumannii [8]): 12.5 µg/mL (≈ 25.6 µM); MIC (Pseudomonas aeruginosa): 6.25 µg/mL (≈ 12.8 µM); MIC (Acinetobacter baumannii [9]): 12.5 µg/mL (≈ 25.6 µM); MIC (Klebsiella pneumoniae [10]): 3.12 µg/mL (≈ 6.39 µM); MIC (Klebsiella pneumoniae [11]): 3.12 µg/mL (≈ 6.39 µM)
CCCCCCCN1CCCc2cc(OCC(=O)N[C@@H](CCCNC(=N)N)C(=O)N[C@@H](CCCNC(=N)N)C(=O)OC)ccc21 | 50 µg/mL (≈ 79.1 µM) | 3.12 µg/mL (≈ 4.95 µM) | > 200 µg/mL | 50 µg/mL (≈ 79.1 µM) | 3.12 µg/mL (≈ 4.95 µM) | 6.25 µg/mL (≈ 9.89 µM) | > 50 µg/mL | 
CCCCCNCCCCOc1ccc2c(c1)CCCN2CC=C(C)C | > 50 µg/mL | 6.25 µg/mL (≈ 17.4 µM) | 146 µg/mL | 50 µg/mL (≈ 139 µM) | 6.25 µg/mL (≈ 17.4 µM) | 6.25 µg/mL (≈ 17.4 µM) | > 50 µg/mL | 
CCCCCCCCCN1CCCc2cc(OCC(=O)OCC)ccc21 | > 50 µg/mL | > 50 µg/mL | > 200 µg/mL | > 50 µg/mL | > 50 µg/mL | > 50 µg/mL | > 50 µg/mL | 
CCCCCCCN1CCCc2cc(OCCCCCCCCBr)ccc21 | > 50 µg/mL | > 50 µg/mL | > 200 µg/mL | > 50 µg/mL | > 50 µg/mL | > 50 µg/mL | > 50 µg/mL | 
O=C(O)c1cn(C2CC2)c2cc(N3CCNCC3)c(F)cc2c1=O [CIPROFLOXACIN] |  | 0.39 µg/mL (≈ 1.18 µM) |  | 0.049 µg/mL (≈ 0.148 µM) | 0.39 µg/mL (≈ 1.18 µM) | 0.39 µg/mL (≈ 1.18 µM) |  | MIC (Acinetobacter baumannii [8]): 0.39 µg/mL (≈ 1.18 µM); MIC (Pseudomonas aeruginosa): 0.195 µg/mL (≈ 0.589 µM); MIC (Acinetobacter baumannii [9]): 0.78 µg/mL (≈ 2.35 µM); MIC (Klebsiella pneumoniae [10]): 0.195 µg/mL (≈ 0.589 µM); MIC (Klebsiella pneumoniae [11]): 0.195 µg/mL (≈ 0.589 µM)
CCCCCCCCCN1CCCc2cc(O)ccc21 | 50 µg/mL (≈ 182 µM) | 12.5 µg/mL (≈ 45.4 µM) | > 200 µg/mL | > 50 µg/mL | 12.5 µg/mL (≈ 45.4 µM) | 12.5 µg/mL (≈ 45.4 µM) | 50 µg/mL (≈ 182 µM) | 
CC(C)=CCC/C(C)=C/CN1CCCc2cc(O)ccc21 | 25 µg/mL (≈ 87.6 µM) | 12.5 µg/mL (≈ 43.8 µM) | > 200 µg/mL | > 50 µg/mL | 12.5 µg/mL (≈ 43.8 µM) | 12.5 µg/mL (≈ 43.8 µM) | 50 µg/mL (≈ 175 µM) | 
